Reference: patent US20150239824A1, “BRANCHED OR MACROCYCLIC POLYAMINES AND USES THEREOF” (UNIVERSITE DE STRASBOURG, priority 2012, published 2015)
“Also recorded” adds a separate entry of the source.

Experiments:
NIH3T3 cells [1] = test: Immunofluorescence of microtubule and intermediate filament organization; type: cell-based, mouse; conditions: 100 μM, 20 min
Description: (§1) Cells were fixed in 3% PFA (Sigma-Aldrich) for 17 min and then permeabilized with 0.5% Triton solution (Sigma-Aldrich) for 3 min and rinsed twice with 1× PBS. For actin and focal contacts staining, cells were incubated with Alexa 488 phalloidin (1:200, Molecular Probes) and anti-paxillin monoclonal primary antibody (1:50, BD Biosciences) for 45 min at RT. Samples were finally mounted in 50% Glycerol/1× PBS on glass slides and protected from drying. For the intermediate filaments staining, cells were quenched in NaBH4/PBS solution for 10 min at RT. Cells were incubated first with anti-vimentin (1:500, Convance) for 1 h and then with goat anti-guinea pig Dylight 594 (1:1000, Jackson) for 45 min at RT. Microtubules were fixed using methanol at −20° C. for 10 min and stained with mouse monoclonal anti-alpha tubulin (1:50, Sigma-Aldrich) for 45 min at RT.

F-actin with ADF = biological target: T1, F-actin with ADF (Oryctolagus cuniculus, UniProt P68135); test: ADF-induced depolymerization of gelsolin-capped filaments and sedimentation assay; type: biochemical, rabbit
T1 construct: Actin was purified from rabbit skeletal muscle, isolated in CaATP-G-actin form by size exclusion chromatography; from tissue; host or cells: rabbit skeletal muscle (actin); bacteria (ADF, gelsolin)
Description: Actin-based motile processes result from site-directed initiation of actin assembly by two major signal-responsive protein machineries. WASP family proteins use the Arp2/3 complex to branch filaments at the membrane and assemble a dendritic protrusive meshwork, while formins initiate barbed-end processive assembly of actin bundles. In both cases, force is produced by barbed-end growth fueled by regulated treadmilling. Treadmilling that drives the formation of dendritic actin arrays is enhanced by the synergistic effects of capping proteins, profilin and Actin Depolymerizing Factor (ADF/cofilin). ADF is known to destabilize actin filaments, promoting a large increase in pointed end depolymerization rate, the limiting step in filament treadmilling^17. FIG. 6 Ba-c confirms that gelsolin-capped filaments depolymerize up to a maximum of 30-fold faster in the presence of ADF, in agreement with previous data^17. […] In the presence of cyclic or branched polyamines, the rate of depolymerization was much less enhanced by ADF (about three-fold at 3 μM ADF, versus 30-fold in the control without polyamines).
(§2) Actin was purified from rabbit skeletal muscle, isolated in CaATP-G-actin form by size exclusion chromatography in G buffer (5 mM Tris-Cl—, pH 7.8, 0.1 mM CaCl2, 0.2 mM ATP, 1 mM DTT, 0.01% NaN3) and pyrenyl-labeled as described^1. […]

actin = biological target: T2, actin (Oryctolagus cuniculus, UniProt P68135); test: Actin assembly and bundling (light scattering, pyrenyl-actin fluorescence, electron microscopy); type: biochemical, rabbit; conditions: for bundling / polymerization of actin filaments in vitro: light scattering, neomycin vs BPA: low ionic strength (G-buffer), up to at least 100 μM
T2 construct: Actin was purified from rabbit skeletal muscle, isolated in CaATP-G-actin form by size exclusion chromatography; from tissue; host or cells: rabbit skeletal muscle
Description: (§3) Actin assembly was monitored using as probes the increase in light scattering intensity (310 nm, 90° angle) and in the fluorescence of pyrenyl-actin (excitation 366 nm, emission 407 nm). Measurements were made at room temperature in a Xenius Safas spectrofluorimeter. CaATP-G-actin was converted into MgATP-G-actin by addition of 20 μM MgCl2 and 0.2 mM EGTA to a solution of 10 μM CaATP-G-actin in G buffer. Polymerization was triggered by addition of MgCl2 (1 mM final), EGTA (0.2 mM final) and KCl as indicated to MgATP-G-actin. The 1:1 CaATP-actin complex was obtained by removing free ATP by two consecutive treatments of CaATP-G-actin in G buffer with 10% suspension vol/vol of Dowex-I (BioRad) in G buffer without ATP.
(§4) Actin was purified from rabbit skeletal muscle, isolated in CaATP-G-actin form by size exclusion chromatography in G buffer (5 mM Tris-Cl—, pH 7.8, 0.1 mM CaCl2, 0.2 mM ATP, 1 mM DTT, 0.01% NaN3) and pyrenyl-labeled as described^1. Human gelsolin, mouse profilin, mouse Capping Protein and human ADF were bacterial recombinant proteins, and Arp2/3 was purified from bovine brain as described in Egile et al.^39. His6-tagged human N-WASP was expressed in sf9 cells using the baculovirus expression system and purified as described^39. Spectrin-actin seeds were isolated and purified from human blood cells^40.
Electron microscopy observation of actin assemblies in the presence of C7N6 MPA was performed using a Philips CM12 electron microscope at 80 kV. Samples containing actin (2 μM) in either in G or F form and C7N6 MPA were prepared and placed on glow-discharged carbon-coated grids.

NIH3T3 cells [2] = test: Growth of lamellipodia / increase in projected cell area in NIH3T3 cells; type: cell-based, mouse; conditions: 100 μM
Description: (§5) Polyamine compounds were dissolved in Milli-Q water to give a stock solution of 30 mM. For immunostaining and microscopy experiments, polyamine compounds were added to the cell medium at a final concentration of 100 μM, except for experiments which tested efficiency. For immunostaining experiments, NIH3T3 cells were incubated with Blebbistatin (30 μM), ML7 (10 μM), Y27632 (10 μM), Cytochalasin D (1 μM) (Sigma-Aldrich) for 30 min, LY294002 (50 μM) (Sigma-Aldrich) for 30 minutes. Latrunculin A (1.5 μM) (Sigma-Aldrich) was added for 5 min. After additional 20 min incubation with 100 μM polyamine, cells were fixed and stained.
(§6) Increase in cell area for given time point (n=5, 10 and 20 min) was calculated by (A1n-A0)/A0, where A0 and A1n are the areas before and after polyamine addition, respectively. Kymographs for the analysis of actin retrograde flow in the lamellipodia region were performed in ImageJ. Moving features were visualized as diagonal streaks with slope depending on the velocity of movement.
as §1
NIH3T3 mouse fibroblast and REF52 rat embryo fibroblasts (ATCC) were cultured in DMEM supplemented with 10% calf bovine serum (BCS, Sigma-Aldrich) or fetal bovine serum (FCS, Hyclone) and 1% Pen/Streptomycin (InVitrogen). […]

F-actin = biological target: T3, F-actin (Oryctolagus cuniculus, UniProt P68135); test: Critical concentration plots, free barbed ends; type: biochemical, rabbit; conditions: F-actin at steady state
T3 construct: Actin was purified from rabbit skeletal muscle, isolated in CaATP-G-actin form by size exclusion chromatography; from tissue; host or cells: rabbit skeletal muscle
Description: (§7) Critical concentration plots were performed by serial dilution of F-actin (10% pyrenyl-labeled) in F buffer containing the desired amounts of BPA/MPA. Pyrenyl-actin fluorescence was read after overnight incubation in the dark.
as §4

REF 52 cell = test: Actin retrograde flow in lamellipodia; type: cell-based, rat; conditions: lamellipodia region, kymographs, n=6 cells
Description: as §6
NIH3T3 mouse fibroblast and REF52 rat embryo fibroblasts (ATCC) were cultured in DMEM supplemented with 10% calf bovine serum (BCS, Sigma-Aldrich) or fetal bovine serum (FCS, Hyclone) and 1% Pen/Streptomycin (InVitrogen). Cells were grown at 37° C. and 5% CO2. For microscopy and immunostaining, cells were trypsinized (0.25% Trypsin-EDTA, InVitrogen), centrifuged and plated on glass coverslips. For live cell observation, Leibovitz's L-15 1× medium (InVitrogen) supplemented with 10% serum (FCS for REF52 and BCS for NIH3T3 cells) and 1% antibiotics was used.
For retrograde flow experiments, surfaces were coated with poly-lysine (Sigma-Aldrich) as described in Verkhovsky et al.^20.
Actin retrograde flow velocity experiments were performed in a Leica DM 2500 Microscope with a 100× oil objective at 37° C. Data acquisition was 1 image/5 sec.

[3] = biological target: T4, N-WASP-coated beads, actin-based propulsion (Oryctolagus cuniculus, UniProt P68135); test: Reconstituted motility assay of N-WASP-coated beads; type: biochemical; conditions: 50 μM added a few minutes after initiation of comet tail formation
T4 construct: Actin was purified from rabbit skeletal muscle, isolated in CaATP-G-actin form by size exclusion chromatography; from tissue; host or cells: rabbit skeletal muscle (actin); sf9/baculovirus (N-WASP); bacteria (ADF, profilin, Capping Protein); bovine brain (Arp2/3)
Description: Reconstituted motility assays were performed using 2 μm diameter carboxylated polystyrene beads functionalized with N-WASP (170 nM, 2 hours, followed by 1% BSA neutralization for 20 min)^19. Beads were placed in a reconstituted motility mix containing 7.5 μM F-actin, 75 nM Capping Protein, 2 μM profilin, 7 μM ADF, 75 nM Arp2/3 complex in × buffer (10mM HEPES, 0.1M KCl, 1 mM MgCl2, 0.1 mM CaCl2, 1 mM ATP, 7 mM DTT, 1.5 mM DABCO at pH 7.8, 0.5% BSA and 0.2% methylcellulose). C8N6 BPA was then added at 50 μM. Observations were made using a phase contrast Olympus AX70 microscope controlled by MetaMorph 6.3r7 with CCD camera and 20× phase objective. Data analysis was performed to extract bead velocity with ImageJ software. Bead velocity was measured and averaged on 10-15 beads.
as §4

[4] = biological target: T5, actin with Capping Protein (Oryctolagus cuniculus, UniProt P68135); test: Critical concentration and steady-state F-actin in the presence of Capping Protein; type: biochemical, rabbit; conditions: 100 μM, 1 μM total actin
T5 construct: Actin was purified from rabbit skeletal muscle, isolated in CaATP-G-actin form by size exclusion chromatography; from tissue; host or cells: rabbit skeletal muscle (actin); bacteria (Capping Protein)
Description: as §7, §4

[5] = biological target: T6, actin filament barbed ends (Oryctolagus cuniculus, UniProt P68135); test: Seeded barbed end growth assay (spectrin-actin seeds); type: biochemical, rabbit; conditions: neomycin up to at least 100 μM
T6 construct: Actin was purified from rabbit skeletal muscle, isolated in CaATP-G-actin form by size exclusion chromatography; from tissue; host or cells: rabbit skeletal muscle
Description: as §3
Seeded barbed end growth assays were performed at 2.5 μM actin and 0.1 nM spectrin-actin seeds^38. Pointed end growth assays were performed similarly but using preformed gelsolin-actin complexes (2 nM final) as seeds. The initial rate of fluorescence increase was measured.
as §2

NIH3T3 cells [6] = test: Actin filament stability in Triton-treated cells; type: cell-based, mouse; conditions: 100 μM, then 0.1% Triton
NIH3T3 cells [7] = test: Cell entry of polyamines (Cy3 fluorescence, injection); type: cell-based, mouse; conditions: 100 μM, 20 min
Description: as §5
Fluorescent images were taken in a Fluorescence Nikon Ti microscope (60× oil objective, NA 1.25) combined with a Photometrics CoolSNAP HQ2 camera and NIS acquisition software.

| Compound | organization of microtubules and intermediate filaments (NIH3T3 cells [1]) | ADF-induced increase in rate of F-actin depolymerization (F-actin with ADF; gelsolin-capped filaments) | steady state of actin assembly in the presence of ADF (F-actin with ADF; sedimentation, F-actin 3 μM, 0.3 mM polyamine, one hour) | assembly of actin at physiological ionic strength (actin; 1 mM MgCl2, 0.1 M KCl) | bundling / polymerization of actin filaments in vitro (actin) | bundling / polymerization of actin filaments in vitro (actin; listed as BPA) | focal contacts (paxillin immunofluorescence) (NIH3T3 cells [2]; 20 min) | actin bundles within the lamellipodial array (NIH3T3 cells [2]; 20 min, actin staining) | growth of lamellipodia (NIH3T3 cells [2]; NIH3T3 cells, compound added to the cell culture medium) | critical concentration for filament assembly (F-actin) | critical concentration for filament assembly (F-actin; listed as BPA) | actin retrograde flow velocity (REF 52 cell) | propulsion rate of N-WASP-coated beads [3] | nucleation / short polymers in the presence of capping protein [4] | nucleation / short polymers in the presence of capping protein ([4]; listed as BPA) | inhibition of barbed-end growth [5] | stabilization of actin filaments in Triton-treated cells (NIH3T3 cells [6]) | entry into cells (NIH3T3 cells [7]) | entry into cells (NIH3T3 cells [7]; listed as Cy3-labeled C8N6 BPA) |
| --- | --- | --- | --- | --- | --- | --- | --- | --- | --- | --- | --- | --- | --- | --- | --- | --- | --- | --- | --- |
| NCCCN(CCCN)CCCCCCCCN(CCCN)CCCN [C8N6 BPA] | no effect on microtubules and intermediate filaments organization | greatly weakened | practically unaffected; also recorded: not affected | induced assembly of actin | induce ATP sensitive bundling of actin filaments | massive bundling is induced | exhibited the expected distribution and shapes of focal contacts | bundles of actin arranged in microspikes were observed | promote growth of lamellipodia | not significantly affected | strictly superimposable | clear reduction in the actin retrograde flow | dramatic decrease in propulsion rate | enhance nucleation by capping proteins | stabilizes a greater number of short polymers in the presence of capping protein | inhibition | stabilizes actin filaments in Triton-treated cells like Jasplakinolide |  |  |
| CC[N+](CC)(CC)CCC[N+]1=C(/C=C/C=C2/N(CCCCCC(=O)NCCCN(CCCN)CCCCCCCCN(CCCN)CCCN)c3ccccc3C2(C)C)C(C)(C)c2ccccc21 [C8N6 BPA-Cy3] |  |  |  |  |  |  |  |  |  |  |  |  |  |  |  |  |  | the polyamines enter the cells | entered the cell and displayed the same effect as the unlabeled C8N6 BPA; also recorded: the polyamines enter the cells |
| neomycin [reference compound] |  |  |  |  | does not induce bundling of actin; also recorded: does not promote polymerization of actin |  |  |  |  |  |  |  |  |  |  | does not inhibit barbed-end growth; also recorded: not inhibited |  |  |  |
